Measurements published in patent US8193378B2, “2H-chromene compound and derivative thereof” (Astellas Pharma Inc., priority 2008, dated 2012).

Legend:
[1] = target: T1, human S1P1 (Homo sapiens, UniProt P21453); assay: Ca2+ influx assay using human S1P1 expressing cell (Test Example 1, Method 2); assay type: cell-based; settings: method 2, Ca2+ influx, human S1P1 expressing CHO cell (values with *); read-out: A: EC50, in vitro S1P1 agonist action (value with *)
T1 construct: expressed in transfected cells; membrane fraction used
Procedure: Evaluation of In Vitro S1P1 Receptor Agonist Activity in Biological Body
(Method 2) Method for Evaluation of Receptor Agonist Action by Ca^2+ Influx Assay Using Human S1P1 Expressing Cell
The in vitro S1P1 agonist action of the compound of the present invention was evaluated by the increase in the Ca^2+ concentration in a human S1P1 expressing cell. A cDNA encoding a human S1P1 was cloned from a human colorectal cDNA library and introduced to an expression vector pcDNA3.1 to construct a S1P1-pcDNA3.1. Then, by Lipofectamine 2000 (GIBCO), the S1P1-pcDNA3.1 was transfected into a CHO cell, and cultured in a Ham's F-12 culture medium containing 10% fetal bovine serum, 100 U/mL penicillin, 100 μg/mL streptomycin, and 1 mg/mL G418 disulfate, to obtain a stable, G418-resistant strain. The cultured human S1P1 expressing cells were isolated in a 1 mM EDTA.2Na-containing PBS and suspended in a Ham's F-12 culture medium containing 10% fetal bovine serum, 100 U/mL penicillin, and 100 μg/mL streptomycin. This cell suspension was dispensed to a 96-well plate at 50000 cells/well, and cultured at a CO2 incubator (5% CO2, 37° C.) overnight. The culture medium was replaced with a calcium-sensitive fluorescent reagent (FLIPR (registered trademark) calcium 3 assay kit, molecular device)-containing loading buffer (Hank's balance salt solution, 20 mM HEPES, 2.5 mM probenecid) and left stand at a CO2 incubator (5% CO2, 37° C.) for 1 hour. The plate was set at a Functional Drug Screening System FDSS6000 (Hamamatsu Photonics K. K.), and persistently measured 124 times every 1.02 second at an excitation wavelength of 480 nm. The test compound (final concentration 10^−12 to 10^−5 M) was added at the same time as the 12th measurement, and the change in the Ca^2+ concentration in cells was evaluated by the change in the fluorescent strength. For evaluation of the human S1P1 agonist action of the compound of the present invention and the comparative compound, the percentages with the rate of a maximum reaction to make the increase in the Ca^2+ concentration in cells saturated after the addition of the compound being set at 100% and the rate of the increase in the Ca^2+ concentration in cells by the addition of a vehicle alone being set at 0% were used, a non-linear regression curve was plotted, and a concentration to cause an agonist action operating 50% of the maximum reaction was defined as an EC50 value (nM).

[2] = system: peripheral blood lymphocytes; assay: Reduction of number of peripheral blood lymphocytes in rat (Test Example 2); assay type: in vivo; settings: Lymphocyte, male Lewis rats, oral, 24 hours after administration, read-out: B: ED50 24 h, reduction of number of lymphocytes in peripheral blood
Procedure: Evaluation of Reduction of Number of Peripheral Blood Lymphocytes in Rat
The action on the peripheral blood lymphocytes were evaluated using rats. 6- to 10-week-old male Lewis rats (Japan Charles River Laboratories Japan, Inc.) were randomly divided into groups (n=3), and the compound of the present invention was suspended in 0.5% methyl cellulose-containing distilled water, and orally administered with a sonde. At 4 hours or 24 hours after administration, 0.2 ml of blood was collected from the ocular fundus under ether anesthesia. To the blood sample were immediately added EDTA.4K and heparin to prevent clotting, and the number of the lymphocytes in blood was measured with an automatic hematocyte analyzer (Sysmex Corp.; XT-2000i). For the reduction of the number of the lymphocytes in peripheral blood by the compound of the present invention, the percentage with the number of the lymphocytes in groups administered with 0.5% methyl cellulose-containing distilled water being set at 100%, as performed at the same time, were used, and the dose to cause 50% reduction of the number of the lymphocytes in the peripheral blood by administration of the compound of the present invention was defined as an ED50 value (mg/kg).

[3] = Infrequent pulse expression using awake rats (Test Example 5); assay type: in vivo, rat; settings: awake male Lewis rats, intravenous infusion for 10 minutes, 1 mg/kg administration
Procedure: Evaluation of Infrequent Pulse Expression Using Awake Rats Male Lewis rats were anesthetized with isoflurane inhalation and a polyethylene tube was intubated into the femoral artery and vein. It was connected to a blood pressure measuring amplifier•heart rate unit via a pressure transducer from an arterial line, and the arterial blood pressure and the heart rate were measured. Intravenous line from Vehicle (10% HCO40/tween80/PEG, 90% saline) and the present compounds were intravenously infused persistently at a rate of 1 mL/kg/min for 10 minutes. The measurement data were read (for a total evaluation time of 20 minutes) from a chart of the values before administration, at 1, 2, 5, and 10 min after the start of constant infusion, and at 1, 2, 5, and 10 min after the completion of infusion, and thus, for the heart rate and the blood pressure before administration, the decrease rates (%) before and after infusion were calculated.

T1 sequence (P21453 whole entry): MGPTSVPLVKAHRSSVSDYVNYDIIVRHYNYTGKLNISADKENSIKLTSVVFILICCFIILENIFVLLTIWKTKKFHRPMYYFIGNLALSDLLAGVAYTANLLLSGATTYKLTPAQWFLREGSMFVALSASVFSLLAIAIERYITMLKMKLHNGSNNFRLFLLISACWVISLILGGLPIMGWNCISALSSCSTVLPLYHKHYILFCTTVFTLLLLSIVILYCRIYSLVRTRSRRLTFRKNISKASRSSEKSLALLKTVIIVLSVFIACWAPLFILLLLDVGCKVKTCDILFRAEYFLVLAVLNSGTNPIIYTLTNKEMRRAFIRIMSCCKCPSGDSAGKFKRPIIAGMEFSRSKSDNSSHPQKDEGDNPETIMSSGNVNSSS

| EC50 [1] | infrequent pulse expression [3] | Compound | ED50 [2] | influence on the heart rate and the blood pressure [3] |
| --- | --- | --- | --- | --- |
| 9 nM |  | Cl.O=C(O)C1CCN(CC2=Cc3ccc(OCc4ccc(OCC(F)(F)F)c(C(F)(F)F)c4)cc3OC2)CC1 [Ex 171] | 0.14 mg/kg |  |
| 7 nM | not expressed | Cl.O=C(O)[C@H]1CCCN(CC2=Cc3c(F)cc(OCc4ccc(OC(CF)CF)c(C(F)(F)F)c4)cc3OC2)C1 [Ex 230] | 0.19 mg/kg | does not have an influence |
| 1.1 nM |  | Cl.O=C(O)[C@@H]1CCCN(CC2=Cc3c(F)cc(OCc4ccc(OC(CF)CF)c(C(F)(F)F)c4)cc3OC2)C1 [Ex 212] | 0.21 mg/kg |  |
